According to PubChem BioAssay (NCI):
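A five-concentration, 48-hour dose response in 96-well plates underlies each endpoint, interpolated linearly between surrounding concentrations. Definition used: TGI = concentration required for complete inhibition of growth.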

Assays:
Assay in all cases: NCI tumour cell line growth inhibition, 48 h
SF-268 CNS = test system: SF-268 CNS
EKVX NSCLC = test system: EKVX NSCLC
NCI-H23 lung = test system: NCI-H23 lung
SW-620 colon = test system: SW-620 colon
NCI-H226 lung = test system: NCI-H226 lung
MOLT-4 leukemia = test system: MOLT-4 leukemia
NCI/ADR-RES ovarian = test system: NCI/ADR-RES ovarian
TK-10 renal = test system: TK-10 renal
COLO 205 colon = test system: COLO 205 colon
SK-MEL-2 melanoma = test system: SK-MEL-2 melanoma

Row | SMILES | TGI (SF-268 CNS) | TGI (EKVX NSCLC) | TGI (NCI-H23 lung) | TGI (SW-620 colon) | TGI (NCI-H226 lung) | TGI (MOLT-4 leukemia) | TGI (NCI/ADR-RES ovarian) | TGI (TK-10 renal) | TGI (COLO 205 colon) | TGI (SK-MEL-2 melanoma)
1 | OC[C@@H](O)[C@H](O)[C@H](O)[C@@H](O)C1SCCCS1 | > 100 µM | > 100 µM | > 100 µM | > 100 µM | > 100 µM | > 100 µM | > 100 µM | > 100 µM | > 100 µM | > 100 µM
2 | Nc1ccc(Oc2ccc(C34CC5CC(C3)CC(c3ccc(Oc6ccc(N)c(O)c6)cc3)(C5)C4)cc2)cc1O | 2.9 µM | 3.63 µM | 4.1 µM | > 100 µM | 9.93 µM | > 100 µM | 6.12 µM | > 20.3 µM | 2.85 µM | 5.1 µM
3 | O=C(O)Cn1cnc2c(=O)[nH]c(Nc3ccccc3)nc21 | > 100 µM | > 100 µM | > 100 µM | > 100 µM | > 100 µM | > 100 µM | > 100 µM | > 100 µM | > 100 µM | > 100 µM
4 | Nc1nc(Cl)cc(Oc2ccc(Cl)cc2)n1 | > 100 µM | > 100 µM | > 100 µM | > 100 µM | > 100 µM | > 100 µM | > 100 µM | > 100 µM | > 100 µM | > 100 µM
5 | C#CCn1c(=O)c2cc(OC)c(OC)cc2n(CC#C)c1=O | > 10 µM | > 10 µM | > 10 µM | > 10 µM | > 10 µM | > 10 µM | > 10 µM | > 10 µM | > 10 µM | > 10 µM
6 | COc1c(C(=O)CC2c3c(cc4oc(C)cc(=O)c4c3OC)OC(=N)C2c2nc3ccccc3[nH]2)c(O)c(OC)c2occc12 (stereo not given) | > 100 µM | > 100 µM | > 100 µM | > 100 µM | > 100 µM | > 100 µM | > 100 µM | > 100 µM | > 100 µM | > 100 µM
7 | COc1cc([C@@H]2c3cc4c(cc3[C@H](OC3OC5COC(C(C)C)OC5C(O)C3O)C3COC(=O)[C@@H]32)OCO4)cc(OC)c1OC (stereo not given in full) | > 100 µM | > 100 µM | 16.5 µM | > 100 µM | 12.6 µM | > 68.4 µM | > 79.5 µM | > 100 µM | 14.6 µM | 25.4 µM
8 | COC(=O)[C@@]1(Cc2ccc(OC(C)=O)cc2)Cc2cc3ccccc3n2N1 | > 100 µM | > 100 µM | > 100 µM | > 100 µM | > 100 µM | > 100 µM | 96.4 µM | > 100 µM | 92.7 µM | 52.2 µM
9 | CCCC(CCC(=O)O)(CCC(=O)O)[N+](=O)[O-] | > 100 µM | > 100 µM | > 100 µM | > 100 µM | > 100 µM | > 100 µM | > 100 µM | > 100 µM | > 100 µM | > 100 µM
10 | CCc1cc2c(cc1O)CC[C@@H]1[C@@H]2CC[C@]2(C)[C@@H](O)CC[C@@H]12 | 24.6 µM | 25.5 µM | 20.6 µM | 16.6 µM | 26.6 µM | 20 µM | 9.92 µM | 60.9 µM | 31.9 µM | 25 µM
11 | O=C(O)C(=Cc1ccc(-c2ccc([N+](=O)[O-])cc2)o1)C(=O)O | > 100 µM | > 100 µM | > 100 µM | > 100 µM | > 100 µM | > 100 µM | > 100 µM | > 100 µM | > 100 µM | > 100 µM
12 | CCCCCCCCC/C=C1/CC(CO)(COC(=O)C2CCCCC2)OC1=O (stereo not given) | > 100 µM | > 100 µM | > 100 µM | > 100 µM | > 100 µM | > 100 µM | > 100 µM | > 100 µM | > 100 µM | > 100 µM
13 | COc1ccc2cc(CNCCOCCOCCNCc3ccc4cc(OC)ccc4c3)ccc2c1 | 2.99 µM | 3.21 µM | 3.02 µM | 3.69 µM | 3.09 µM | 2.44 µM | 3.02 µM | 2.98 µM | 0.346 µM | 3.18 µM
14 | Cc1ccc(S(=O)(=O)N(CC(O)COc2ccccc2)c2ccccc2Cl)cc1 (stereo not given) | 35.7 µM | 31.8 µM | 31.1 µM | 36.6 µM | 32.3 µM | 52.9 µM | 37.8 µM | 29.3 µM | 34 µM | 27 µM
15 | Clc1ccc(CCNCCNC2(c3cc4ccccc4s3)CCCCC2)cc1Cl | 3.37 µM | 3.99 µM | 3.38 µM | 3.48 µM | 3.64 µM | 4.53 µM | 3.47 µM | 3.07 µM | 2.99 µM | 3.2 µM
16 | COc1cc2c(cc1OC)C/C(=N\O)c1cc(OC)c(OC)cc1/C=C\2 | > 100 µM | > 100 µM | > 100 µM | > 90.6 µM | 45.5 µM | > 85 µM | 89.3 µM | > 72.6 µM | 28.7 µM | 44.6 µM
17 | COC(=O)C1=C(C(=O)OC)SC2(S1)C(C(=O)OC)=C(C(=O)OC)Sc1c2ssc1=O | 10.3 µM | 6.16 µM | 4.12 µM | 2.47 µM | 2.97 µM | 0.843 µM | 2.82 µM | 3.04 µM | 2.08 µM | 4.1 µM
